Measured values published in patent publication US8399490B2, “Insecticides” (Syngenta Crop Protection LLC, priority 2007, dated 2013).
Where two headings read alike, the source gives them in different places.

What was measured:
[1] = test system: Spodoptera littoralis (Egyptian cotton leafworm); experiment: Example B9: comparison with state of the art, Spodoptera littoralis (larvicide, feeding/residual contact activity, preventive); assay type: in vivo
[2] = test system: Plutella xylostella (diamond back moth); experiment: Example B8: comparison with state of the art, Plutella xylostella (larvicide, feeding/residual contact activity, preventive); assay type: in vivo
Description: Plutella xylostella (Diamond Back Moth)
(§1) (Larvicide, Feeding/Residual Contact Activity, Preventive)
(§2) 24-well microtiter plate (MTP) with artificial diet is treated with test solutions by pipetting. After drying, the MTP's are infested with larvae (L2) (10-15 per well). After an incubation period of 5 days, samples are checked for larval mortality, antifeedant and growth regulation.

[3] = test system: Heliothis virescens (tobacco budworm); experiment: Example B2: Activity against Heliothis virescens (ovo-larvicide, feeding/contact activity, curative), eggs on artificial diet; assay type: in vivo; settings: 96 h, 4 days incubation
Description: Activity Against Heliothis virescens (Tobacco Budworm) (Ovo-Larvicide, Feeding/Contact Activity, Curative) Eggs (0-24 h old) are placed in 24-well microtiter plate on artificial diet and treated with test solutions by pipetting. After an incubation period of 4 days, samples are checked for egg mortality, larval mortality, and growth regulation.

[4] = test system: Myzus persicae (green peach aphid); settings: foliar, 144 h, read-out: activity
[5] = test system: Diabrotica balteata (corn root worm); experiment: Example B4: Diabrotica balteata (larvicide, feeding/residual contact activity, preventive), artificial diet MTP; assay type: in vivo; settings: 120 h, L2 larvae on artificial diet, 5 days incubation
Description: as §2, with “Diabrotica balteata (Corn Root Worm) (Larvicide, Feeding/Residual Contact Activity, Preventive) 24-well” for “24-well”, “(6-10” for “(10-15”

[6] = test system: Plutella xylostella (diamond back moth); experiment: Example B3: Plutella xylostella (larvicide, feeding/residual contact activity, preventive), artificial diet MTP; assay type: in vivo; settings: 120 h, L2 larvae on artificial diet, 5 days incubation
Description: as §2, with “Plutella xylostella (Diamond Back Moth) (Larvicide, Feeding/Residual Contact Activity, Preventive) 24-well” for “24-well”

[7] = test system: Myzus persicae (green peach aphid); experiment: Example B6: Activity against Myzus persicae (mixed population, systemic/feeding activity, curative), pea seedling roots in test solution; settings: 144 h, read-out: activity
[8] = test system: Spodoptera littoralis (Egyptian cotton leafworm); experiment: Example B1: Activity against Spodoptera littoralis (larvicide, feeding/residual contact activity, preventive), cotton leaf discs; assay type: in vivo; settings: foliar, 72 h, L1 larvae on cotton leaf discs, 3 days after treatment
From the text: Activity Against Spodoptera littoralis (Egyptian Cotton Leafworm)
as §1
The samples are checked for mortality, repellent effect, feeding behaviour, and growth regulation 3 days after treatment. In this test, compounds listed in Table P above show good activity. In particular compounds P.1, P.2, P.3, P.4, P.5, P.6, P.7, P.8, P.9, P.10, P.11, P.12, P.13, P.14, P.15, P.16, P.17, P.18, P.19, P.20, P.21, P.22, P.23, P.24, P.25, P.26, P.27, P.28, P.29, P.30, P.31, P.32, P.33, P.34, P.35, P.36, P.37, P.38, P.39, P.40, P.41, P.42, P.43, P.44, P.46, P.50, P.51, P.52, P.55, P.56, P.57, P.58, P.59, P.60, P61, P.66, P.67, P.68, P.69, P.70, P.71, P.72, P.73, P.74, P.75, P.76, P.77, P.78, P.83, P.84, P.87 and P.88 show an activity of over 80% at a concentration of 400 ppm.

| Compound | melting point [°C] | pest or weed control at 400 ppm [3] [%] | pest or weed control at 400 ppm [4] [%] | pest or weed control at 400 ppm [5] [%] | pest or weed control at 400 ppm [6] [%] | pest or weed control at 400 ppm [7] [%] | pest or weed control at 400 ppm [8] [%] | other results |
| --- | --- | --- | --- | --- | --- | --- | --- | --- |
| CC(C)NC(=O)c1c(NC(=O)c2cc(C(F)F)nn2-c2ncccc2Cl)ccc2c1OC(C)C2 (stereo not drawn) [P.86] | 169 to 170 |  |  |  |  |  |  |  |
| CC(C)NC(=O)c1cc2c(c(Cl)c1NC(=O)c1cc(C(F)(F)F)nn1-c1ncccc1Cl)OC(F)(F)O2 [T91.3, reference compound] |  |  |  |  |  |  |  | Death rate (%) after 5 days ([1]; Concentration 12.5 ppm): 0%; Death rate (%) after 5 days ([1]; Concentration 50 ppm): 0%; Death rate (%) after 5 days ([1]; Concentration 200 ppm): 100 (growth) %; Death rate (%) after 5 days ([2]; Concentration 12.5 ppm): 0%; Death rate (%) after 5 days ([2]; Concentration 50 ppm): 80%; Death rate (%) after 5 days ([2]; Concentration 200 ppm): 100% |
| Cc1cc2c(c(C(=O)NC(C)C)c1NC(=O)c1cc(OC(F)F)nn1-c1ncccc1Cl)OC(F)(F)O2 | 203 to 204 |  |  |  |  |  |  |  |
| CCNC(=O)c1c(NC(=O)c2cc(Br)nn2-c2ncccc2Cl)ccc2c1OCO2 [P.65] | 178 to 179 |  |  |  |  |  |  |  |
| CNC(=O)c1c(NC(=O)c2cc(Br)nn2-c2ncccc2Cl)c(C)cc2c1OC(F)(F)O2 [P.26] |  | > 80 | > 80 | > 80 | > 80 | > 80 | > 80 |  |
| CC(C)(CS(C)(=N)=O)NC(=O)c1c(NC(=O)c2cc(Cl)nn2-c2ncccc2Cl)c(Cl)cc2c1OC(F)(F)O2 (stereo not drawn) | 188 to 190 |  |  |  |  |  |  |  |
| C[S+]([O-])CC(C)(C)NC(=O)c1c(NC(=O)c2cc(Cl)nn2-c2ncccc2Cl)c(Cl)cc2c1OC(F)(F)O2 (stereo not drawn) | 240 to 242 |  |  |  |  |  |  |  |
| Cc1cc2c(c(C(=O)NC(C)C)c1NC(=O)c1cc(Cl)nn1-c1ncccc1Cl)OC(F)(F)O2 [P.30] |  | > 80 | > 80 | > 80 | > 80 | > 80 | > 80 |  |
| CSCC(C)(C)NC(=O)c1c(NC(=O)c2cc(C(F)(F)F)nn2-c2ncccc2Cl)c(Cl)cc2c1OC(F)(F)O2 [P.16] |  | > 80 | > 80 | > 80 | > 80 | > 80 | > 80 |  |
| CNC(=O)c1c(NC(=O)c2cc(C(F)F)nn2-c2ncccc2Cl)ccc2c1OC(C)C2 (stereo not drawn) [P.85] | 211 to 213 |  |  |  |  |  |  |  |
| COc1cc(C(=O)Nc2ccc3c(c2C(=O)NC(C)C)OCO3)n(-c2ncccc2Cl)n1 [P.64] | 216 to 217 |  |  |  |  |  |  |  |
| CNC(=O)c1c(NC(=O)c2cc(OC(F)F)nn2-c2ncccc2Cl)c(C)cc2c1OC(F)(F)O2 | 236 to 237 |  |  |  |  |  |  |  |
| CC(C)(CS(C)(=O)=O)NC(=O)c1c(NC(=O)c2cc(C(F)(F)F)nn2-c2ncccc2Cl)c(Cl)cc2c1OCO2 | 88 to 90 |  |  |  |  |  |  |  |
| CNC(=O)c1c(NC(=O)c2cc(Br)nn2-c2ncccc2Cl)c(Cl)cc2c1OC(F)(F)O2 [P.18] |  | > 80 | > 80 | > 80 | > 80 | > 80 | > 80 |  |
| CSCC(C)(C)NC(=O)c1c(NC(=O)c2cc(Cl)nn2-c2ncccc2Cl)c(C)cc2c1OC(F)(F)O2 [P.31] |  | > 80 | > 80 | > 80 | > 80 | > 80 | > 80 |  |
| CC(C)NC(=O)c1c(NC(=O)c2cc(Br)nn2-c2ncccc2Cl)c(Cl)cc2c1OC(F)(F)O2 [P.19] |  | > 80 | > 80 | > 80 | > 80 | > 80 | > 80 |  |
| CC(C)NC(=O)c1c(NC(=O)c2cc(C(F)(F)F)nn2-c2ncccc2Cl)c(Cl)cc2c1OC(F)(F)O2 [P.13] |  | > 80 |  | > 80 | > 80 |  | > 80 | Death rate (%) after 5 days ([1]; Concentration 12.5 ppm): 100%; Death rate (%) after 5 days ([1]; Concentration 50 ppm): 100%; Death rate (%) after 5 days ([1]; Concentration 200 ppm): 100%; insecticidal action compared with the compound from the state of the art (T91.3) ([1]; on Spodoptera littoralis, especially at low application rates): substantially better insecticidal action; Death rate (%) after 5 days ([2]; Concentration 12.5 ppm): 100%; Death rate (%) after 5 days ([2]; Concentration 50 ppm): 100%; Death rate (%) after 5 days ([2]; Concentration 200 ppm): 100%; insecticidal action compared with the compound from the state of the art (T91.3) ([2]; on Plutella xylostella, especially at low application rates): substantially better insecticidal action |
| CNC(=O)c1c(NC(=O)c2cc(C(F)F)nn2-c2ncccc2Cl)c(C)cc2c1OC(C)C2 (stereo not drawn) | 205 to 206 |  |  |  |  |  |  |  |
| Cc1cc2c(c(C(=O)NC(C)C)c1NC(=O)c1cc(C(F)F)nn1-c1ncccc1Cl)OC(C)C2 (stereo not drawn) | 140 to 142 |  |  |  |  |  |  |  |
| CSCC(C)(C)NC(=O)c1c(NC(=O)c2cc(C(F)(F)F)nn2-c2ncccc2Cl)c(C)cc2c1OC(F)(F)O2 | 173 to 174 |  |  |  |  |  |  |  |
| CNC(=O)c1c(NC(=O)c2cc(C(F)(F)F)nn2-c2ncccc2Cl)c(Cl)cc2c1OC(F)(F)O2 [P.15] |  | > 80 | > 80 | > 80 | > 80 | > 80 | > 80 |  |
